Reference: patent publication US20070128217A1 (priority 2003, published 2007)

Tests used:
[1] = system: antibodies in sera from SARS patients (sera 1a, 1b, 2, 6, 37, 62, London, SARS-yellow, SARS-green); format: binding, human; parameters: Binding of serum 6 to linear peptides of protein X1 of SARS-CoV Urbani / Binding of serum 37 to linear peptides of protein X1 of SARS-CoV Urbani / Binding of serum 6 to looped/cyclic peptide (PEPSCAN-ELISA) / Binding of serum 37 to looped/cyclic peptide (PEPSCAN-ELISA) / Binding of serum 37 to looped/cyclic peptides of protein X1 of SARS-CoV Urbani / Binding of serum 6 to linear peptides of protein X2 / Binding of serum 37 to linear peptides of protein X2 / Binding of serum 37 to looped/cyclic peptides of protein X2 of SARS-CoV Urbani / Binding of serum 6 to linear peptides of protein M of SARS-CoV Urbani / Binding of serum 37 to linear peptides of protein M of SARS-CoV Urbani / Binding of serum 6 to looped/cyclic peptides of protein M of SARS-CoV Urbani / Binding of serum 37 to looped/cyclic peptides of protein M of SARS-CoV Urbani / Binding of serum 6 to linear peptides of protein X3 of SARS-CoV Urbani / Binding of serum 37 to linear peptides of protein X3 of SARS-CoV Urbani / Binding of serum 37 to looped/cyclic peptides of protein X3 of SARS-CoV Urbani / Binding of serum 6 to linear peptides of protein X4 of SARS-CoV Urbani / Binding of serum 37 to linear peptides of protein X4 of SARS-CoV Urbani / Binding of serum 37 to looped/cyclic peptides of protein X4 of SARS-CoV Urbani / Binding of serum 6 to linear peptides of protein X5 of SARS-CoV Urbani / Binding of serum 37 to linear peptides of protein X5 of SARS-CoV Urbani / Binding of serum 37 to looped/cyclic peptides of protein X5 of SARS-CoV Urbani / Binding of serum 6 to linear peptides of protein N of SARS-CoV Urbani / Binding of serum 37 to linear peptides of protein N of SARS-CoV Urbani / Binding of serum 6 to linear peptide (PEPSCAN-ELISA) / Binding of serum 1a to looped/cyclic peptides of protein N of SARS-CoV Urbani / Binding of serum 1b to looped/cyclic peptides of protein N of SARS-CoV Urbani / Binding of serum 2 to looped/cyclic peptides of protein N of SARS-CoV Urbani / Binding of serum 6 to looped/cyclic peptides of protein N of SARS-CoV Urbani / Binding of serum 37 to looped/cyclic peptides of protein N of SARS-CoV Urbani / Binding of serum 62 to looped/cyclic peptides of protein N of SARS-CoV Urbani / Binding of serum London to looped/cyclic peptides of protein N of SARS-CoV Urbani / Binding of serum SARS-green to looped/cyclic peptides of protein N of SARS-CoV Urbani: unit not given here
[2] = system: control sera (pooled serum of ten healthy LUMC hospital workers; commercial negative donor pooled serum from the Dutch bloodbank); format: binding, human; parameters: Binding of Control serum LUMC to linear peptides / Binding of Control serum Blood-bank to linear peptides / Binding of Control serum LUMC to looped peptides / Binding of Control Serum Blood-Bank to Looped peptides / Binding of Control serum LUMC to linear peptides of the protein M of SARS-CoV Urbani / Binding of Control serum Blood-bank to linear peptides of the protein M of SARS-CoV Urbani / Binding of Control serum LUMC to looped peptides of the protein M of SARS-CoV Urbani / Binding of Control Serum Blood-Bank to Looped peptides of the protein M of SARS-CoV Urbani: unit not given here
[3] = system: rabbit serum obtained by immunizing a rabbit with the SARS-CoV strain Frankfurt 1; format: binding; parameters: Binding of a rabbit serum to linear peptides / Binding of a rabbit serum to looped peptides / Rabbit serum linear peptides / Rabbit serum looped peptides / Binding of a rabbit serum to linear peptides of protein N of SARS-CoV Urbani (Rabbit serum linear peptides) / Binding of a rabbit serum to looped/cyclic peptides of protein N of SARS-CoV Urbani (Rabbit serum looped peptides): unit not given here

Sequence: NACRIIMRCWLCWKC
- Binding of serum 1a to looped/cyclic peptide (PEPSCAN-ELISA) [1]: 0.6
- Binding of serum 1b to looped/cyclic peptide (PEPSCAN-ELISA) [1]: 0.5
- Binding of serum 2 to looped/cyclic peptide (PEPSCAN-ELISA) [1]: 0.5
- Binding of serum 6 to looped/cyclic peptide (PEPSCAN-ELISA) [1]: 0.6
- Binding of serum 37 to looped/cyclic peptide (PEPSCAN-ELISA) [1]: 0.5
- Binding of serum 62 to looped/cyclic peptide (PEPSCAN-ELISA) [1]: 0.7
- Binding of serum London to looped/cyclic peptide (PEPSCAN-ELISA) [1]: 0.3
- Binding of serum SARS-green to looped/cyclic peptide (PEPSCAN-ELISA) [1]: 0.3
- Binding of serum SARS-yellow to looped/cyclic peptide (PEPSCAN-ELISA) [1]: 0.4
- Recognition of the peptide by sera of SARS-CoV infected individuals, and form (linear, looped/cyclic) in which it is recognized [1]: recognized in linear form
- Binding of Control Serum Blood-Bank to Looped peptides [2]: 0.8
- Binding of Control serum Blood-bank to linear peptides [2]: 1.0
- Binding of Control serum LUMC to linear peptides [2]: 0.5
- Binding of Control serum LUMC to looped peptides [2]: 0.6
- Recognition of the peptide by the rabbit serum [3]: recognized

Sequence: NKFALTCTSTHFAFA
- Binding of serum 1a to linear peptides of protein X4 of SARS-CoV Urbani [1]: 0.6
- Binding of serum 1a to looped/cyclic peptides of protein X4 of SARS-CoV Urbani [1]: 0.9
- Binding of serum 1b to linear peptides of protein X4 of SARS-CoV Urbani [1]: 0.5
- Binding of serum 1b to looped/cyclic peptides of protein X4 of SARS-CoV Urbani [1]: 0.4
- Binding of serum 2 to linear peptides of protein X4 of SARS-CoV Urbani [1]: 0.4
- Binding of serum 2 to looped/cyclic peptides of protein X4 of SARS-CoV Urbani [1]: 0.8
- Binding of serum 6 to linear peptides of protein X4 of SARS-CoV Urbani [1]: 0.3
- Binding of serum 6 to looped/cyclic peptides of protein X4 of SARS-CoV Urbani [1]: 0.6
- Binding of serum 37 to linear peptides of protein X4 of SARS-CoV Urbani [1]: 0.7
- Binding of serum 37 to looped/cyclic peptides of protein X4 of SARS-CoV Urbani [1]: 0.7
- Binding of serum 62 to linear peptides of protein X4 of SARS-CoV Urbani [1]: 0.7
- Binding of serum 62 to looped/cyclic peptides of protein X4 of SARS-CoV Urbani [1]: 0.9
- Binding of serum London to linear peptides of protein X4 of SARS-CoV Urbani [1]: 0.7
- Binding of serum London to looped/cyclic peptides of protein X4 of SARS-CoV Urbani [1]: 0.3
- Binding of serum SARS-green to linear peptides of protein X4 of SARS-CoV Urbani [1]: 0.4
- Binding of serum SARS-green to looped/cyclic peptides of protein X4 of SARS-CoV Urbani [1]: 0.8
- Binding of serum SARS-yellow to linear peptides of protein X4 of SARS-CoV Urbani [1]: 0.5
- Binding of serum SARS-yellow to looped/cyclic peptides of protein X4 of SARS-CoV Urbani [1]: 0.7
- Binding of Control Serum Blood-Bank to Looped peptides [2]: 0.9
- Binding of Control serum Blood-bank to linear peptides [2]: 0.6
- Binding of Control serum LUMC to linear peptides [2]: 0.5
- Binding of Control serum LUMC to looped peptides [2]: 0.8
- Rabbit serum linear peptides [3]: 0.5
- Rabbit serum looped peptides [3]: 0.5

Sequence: NKRWQLALYKGFQFI
- Binding of serum 1a to linear peptides of protein X1 of SARS-CoV Urbani [1]: 0.7
- Binding of serum 1a to looped/cyclic peptide (PEPSCAN-ELISA) [1]: 0.6
- Binding of serum 1b to linear peptides of protein X1 of SARS-CoV Urbani [1]: 0.5
- Binding of serum 1b to looped/cyclic peptide (PEPSCAN-ELISA) [1]: 0.4
- Binding of serum 2 to linear peptides of protein X1 of SARS-CoV Urbani [1]: 0.7
- Binding of serum 2 to looped/cyclic peptide (PEPSCAN-ELISA) [1]: 0.5
- Binding of serum 6 to linear peptides of protein X1 of SARS-CoV Urbani [1]: 0.8
- Binding of serum 6 to looped/cyclic peptide (PEPSCAN-ELISA) [1]: 0.5
- Binding of serum 37 to linear peptides of protein X1 of SARS-CoV Urbani [1]: 0.6
- Binding of serum 37 to looped/cyclic peptide (PEPSCAN-ELISA) [1]: 0.6
- Binding of serum 62 to linear peptides of protein X1 of SARS-CoV Urbani [1]: 0.6
- Binding of serum 62 to looped/cyclic peptide (PEPSCAN-ELISA) [1]: 0.7
- Binding of serum London to linear peptides of protein X1 of SARS-CoV Urbani [1]: 0.3
- Binding of serum London to looped/cyclic peptide (PEPSCAN-ELISA) [1]: 0.4
- Binding of serum SARS-green to linear peptides of protein X1 of SARS-CoV Urbani [1]: 0.3
- Binding of serum SARS-green to looped/cyclic peptide (PEPSCAN-ELISA) [1]: 0.2
- Binding of serum SARS-yellow to linear peptides of protein X1 of SARS-CoV Urbani [1]: 0.3
- Binding of serum SARS-yellow to looped/cyclic peptide (PEPSCAN-ELISA) [1]: 0.5
- Binding of Control Serum Blood-Bank to Looped peptides [2]: 0.7
- Binding of Control serum Blood-bank to linear peptides [2]: 0.6
- Binding of Control serum LUMC to linear peptides [2]: 0.6
- Binding of Control serum LUMC to looped peptides [2]: 0.7
- Recognition of the peptide by the rabbit serum [3]: recognized

Sequence: NLDVIISSIVRQLFK
- Binding of serum 1a to linear peptides of protein X3 of SARS-CoV Urbani [1]: 0.7
- Binding of serum 1a to looped/cyclic peptides of protein X3 of SARS-CoV Urbani [1]: 0.5
- Binding of serum 1b to linear peptides of protein X3 of SARS-CoV Urbani [1]: 0.2
- Binding of serum 1b to looped/cyclic peptides of protein X3 of SARS-CoV Urbani [1]: 0.4
- Binding of serum 2 to linear peptides of protein X3 of SARS-CoV Urbani [1]: 0.4
- Binding of serum 2 to looped/cyclic peptides of protein X3 of SARS-CoV Urbani [1]: 0.5
- Binding of serum 6 to linear peptides of protein X3 of SARS-CoV Urbani [1]: 0.6
- Binding of serum 6 to looped/cyclic peptides of protein X3 of SARS-CoV Urbani [1]: 0.8
- Binding of serum 37 to linear peptides of protein X3 of SARS-CoV Urbani [1]: 0.6
- Binding of serum 37 to looped/cyclic peptides of protein X3 of SARS-CoV Urbani [1]: 0.5
- Binding of serum 62 to linear peptides of protein X3 of SARS-CoV Urbani [1]: 0.6
- Binding of serum 62 to looped/cyclic peptides of protein X3 of SARS-CoV Urbani [1]: 0.4
- Binding of serum London to linear peptides of protein X3 of SARS-CoV Urbani [1]: 0.7
- Binding of serum London to looped/cyclic peptides of protein X3 of SARS-CoV Urbani [1]: 1.8
- Binding of serum SARS-green to linear peptides of protein X3 of SARS-CoV Urbani [1]: 0.3
- Binding of serum SARS-green to looped/cyclic peptides of protein X3 of SARS-CoV Urbani [1]: 0.2
- Binding of serum SARS-yellow to linear peptides of protein X3 of SARS-CoV Urbani [1]: 0.3
- Binding of serum SARS-yellow to looped/cyclic peptides of protein X3 of SARS-CoV Urbani [1]: 0.6
- Binding of Control Serum Blood-Bank to Looped peptides of the protein X3 of SARS-CoV Urbani [2]: 0.8
- Binding of Control serum Blood-bank to linear peptides of the protein X3 of SARS-CoV Urbani [2]: 0.8
- Binding of Control serum LUMC to linear peptides of the protein X3 of SARS-CoV Urbani [2]: 0.6
- Binding of Control serum LUMC to looped peptides of the protein X3 of SARS-CoV Urbani [2]: 0.8
- Rabbit serum linear peptides [3]: 0.3
- Rabbit serum looped peptides [3]: 0.2
